One test concerns PARN level in Hela cells. Put plainly: Western blot of PARN protein level in Hela cells. In kind it is cell-based, human. Conditions: 50 μM, 2 days. An excerpt: The blot was blotted against anti-PARN antibody. (b) Quantification of the changes in PARN levels of western blot using GAPDH as loading controls. siPARN and drug treatments were normalized to scramble siRNA and DMSO controls, respectively. siPARN and drug treatment data were compared to scr and DMSO data, respectively. One-way ANOVA, multiple comparisons test. Average ± SD, N = 3 biological replicates, n = 1. […] (d) Quantification of miR-21-5p levels normalized to U1 RNA. One-way ANOVA, multiple comparisons test, average ± SD, N = 3 biological replicates, n = 1. […] One-way ANOVA, multiple comparisons test, average ± SD, N = 3 biological replicates, n = 2. (f) Representative northern blot showing that miR-21-5p levels decreased in TH11, TH15, and TH16 treatments. […] (g) Quantification of miR-21-5p levels normalized to U1 RNA. […] For nothern blot and RT-qPCR quantifications, Scr and DMSO controls were independently set to 1 and used as control for siPARN and drug treatments, respectively. *P < 0.05, **P < 0.005, ***P < 0.001, ****P < 0.0001, n.s. was not indicated. […]
Cells was lysed with 2× lysis buffer (2.5% SDS, 4% BME, protease inhibitor) and was separated on a 4–12% Bis–Tris NuPage gel (ThermoFisher) and transferred to protran membrane (Amer- sham). […] Blot was quantified using ImageJ and normalized to GAPDH levels (GAPDH antibody (0411) HRP) (Santa Cruz Biotechnology, sc-47724 HRP).

Another test relates to Hela cells. The test can be described thus: Cell death assay (cell counting, with or without doxorubicin). In kind it is cell-based, human. The protocol: Previous work has shown that PARN inhibition leads to cell death in combination with DNA damaging agent, which has been interpreted to occur through the induction of p53[11].
Cell counting were done 2 days post-treatment. For doxorubicin (EMD Millipore, 504042) treatment, doxorubicin (1 μM) was added to cells. Cells were collected and counted at 0 h and 24 h after treatment.

Test [1] concerns PARN activity in Hela cells. Put plainly: miR-21-5p levels in Hela cells by northern blotting (PARN inhibition in cells). Format: cell-based, human. Particulars: 2 days. The method, then: (§1) 48 h after transfection/drug treatment, cells were collected for either RNA or protein analysis.
Total RNA was extracted from cell lysates using TriZol as per manufacturer’s protocol and DNAse treated. After quantification on Nanodrop, total RNA was separated on an acrylamide 7 M Urea gel. RNA was transferred to a nylon membrane (Nytran SPC, GE Healthcare) using semiwet transfer. After UV/EDC crosslinking, the blot was pre-hybridized and hybridized in PerfectHyb Plus Hybridization Buffer (Sigma Aldrich) at 42 °C. Northern probes have been previously described[11],[48]. After hybridization and washing in 2 × SSC 0.1% SDS wash buffer, blots were exposed to a cassette and imaged on a Typhoon FLA 9500 Phosphoimager. Band intensities were quantified using ImageJ and normalized to the U1 levels under each condition.

Test [2] has as its target GCK (germinal center kinase). Particulars: cited from earlier work.
The target of test [3] is ACK1 (activated CDC42 kinase 1). Conditions: cited from earlier work.
A further test deals with hTR levels in Hela cells. The test can be described thus: hTR levels in Hela cells by RT-qPCR. Conditions: 50 µM, 2 days, RT-qPCR vs DMSO. In kind it is cell-based, human. The protocol: as §1
Extracted total RNA was reverse transcribed using Mir-X miRNA first strand synthesis kit (Taraka, Cat # 638315) to make cDNA and qPCR was perfomred with iQ SYBR Green Supermix (BioRad, Cat. No. 1708880) with […] (forward primer) and […] (reverse primer) for hTR. The RNA levels were normalized using 5S rRNA as a housekeeping gene.

`Cc1ccc(Nc2ncc3c(n2)N(C)C(=O)N(c2cc(NC(=O)c4cccc(C(F)(F)F)c4)ccc2C)C3)cn1` [GNF-7]: in the test on PARN level in Hela cells, the “PARN level (western blot)” value is given as “do not affect PARN level”. For the same compound, the “sensitivity of cells to doxorubicin (cell death)” value in the test on Hela cells (Hela cells treated 2 days, then doxorubicin 1 μM for 24 h) is “increase the sensitivity”. Also, the “cell growth compared to DMSO treatment” value in the test on Hela cells (Hela cells, 25 μM, 2 days) is “growth defects”. Moreover, in test [1] (50 μM), the “PARN inhibitor in cells” value is reported as “Yes”. Moreover, the “miR-21-5p levels compared to the controls” value in test [1] (50 µM, northern blotting, DMSO control) was ~ 35%. In addition, the IC50 – broadly, the concentration that gives 50% inhibition – in test [2] was 0.008 µM; in test [3] it was 0.025 µM. Besides, the hTR levels result with hTR levels in Hela cells is “decreased”.

Source of the values: PMC10066322 (Scientific Reports, 2023).
